# Experimental data from patent US20250127766A1, “METHODS AND COMPOSITIONS FOR TREATING CDKL5 DISORDER USING MONOAMINE OXIDASE INHIBITORS” (priority 2023, published 2025).
# How the values were obtained:
# GABA receptor = details: in vitro; cited from earlier work
# [1] = tested on: CDKL5-deficient organoids; test: Network activity of organoids derived from patient iPSCs; type: cell-based, human; details: CDKL5-deficient organoids treated with harmine
# Method: Another set of experiments was conducted using organoids derived from patient-induced pluripotent stem cells (iPSCs). Organoids are three-dimensional structures created from stem cells that closely resemble specific organs or tissues in terms of cellular composition, architecture, and function. These structures are widely used in biomedical research because they replicate the complexity of real organs, including their multiple cell types, tissue-specific structures, and the functions of the organ being modeled. In this study, organoids were generated to mimic the neuronal network of patients with CDKL5 deficiency disorder (CDD), providing a model system to explore the underlying mechanisms of the disorder and test potential therapeutic approaches.
# Increased network excitability refers to an overactive state where neurons fire excessively, a characteristic associated with the seizure activity observed in CDD patients. Altered synchrony in the neuronal network reflects disrupted communication between neurons, contributing to cognitive impairments.
# DYRK1A = target: T1, DYRK1A (Homo sapiens, UniProt Q13627); test: DYRK1A activity in harmine-treated organoids; type: cell-based
# T1 construct: endogenous in cells; host or cells: CDKL5-deficient organoids
# Description: DYRK1A is a kinase that adds phosphate groups to proteins, thereby regulating their function. In CDKL5 deficiency, the lack of CDKL5-mediated regulation leads to overactivation of DYRK1A, resulting in dysregulated synaptic signaling and impaired neuronal communication. Harmine, by selectively inhibiting DYRK1A, restores the phosphorylation balance at the synapse, preventing over-phosphorylation of critical synaptic proteins. This modulation of synaptic signaling pathways by harmine contributes to the restoration of neuronal connectivity and the normalization of network activity in the treated organoids.
# microglial cells = test: Microglial activity
# Description: This activation is associated with the release of proinflammatory cytokines, which promote neuroinflammatory processes.
# [2] = tested on: proinflammatory cytokines and chemokines; test: Production and release of proinflammatory cytokines and chemokines
# CDKL5 knockout mice = test: In vivo studies in CDKL5 knockout mice: synaptic transmission and neuronal connectivity
# Method: This dosing regimen may serve as a reference point for establishing human doses. Extrapolating from these animal models, an initial dosing range for children of 1 to 2 mg/kg per day. This range can be adjusted depending on the individual's size and response, with a narrower range of 1.5 to 2 mg/kg per day for more precise dosing or even tighter to 1.75 to 2 mg/kg per day in specific cases. For broader clinical flexibility, a starting range of 0.5 to 3 mg/kg per day might be considered for pediatric populations, with adjustments based on individual tolerance and therapeutic outcomes.
# In in vivo studies, animal models of neurodevelopmental disorders, including CDKL5 knockout mice, have been treated with liquiritin to assess its impact on synaptic transmission and neuronal connectivity.
# [3] = tested on: oxidative damage of neurons; details: cited from earlier work
# MAO-B = target: T2, MAO-B (Homo sapiens, UniProt P27338); test: MAO-B inhibitory activity; type: biochemical
# T2 sequence (P27338 1-520): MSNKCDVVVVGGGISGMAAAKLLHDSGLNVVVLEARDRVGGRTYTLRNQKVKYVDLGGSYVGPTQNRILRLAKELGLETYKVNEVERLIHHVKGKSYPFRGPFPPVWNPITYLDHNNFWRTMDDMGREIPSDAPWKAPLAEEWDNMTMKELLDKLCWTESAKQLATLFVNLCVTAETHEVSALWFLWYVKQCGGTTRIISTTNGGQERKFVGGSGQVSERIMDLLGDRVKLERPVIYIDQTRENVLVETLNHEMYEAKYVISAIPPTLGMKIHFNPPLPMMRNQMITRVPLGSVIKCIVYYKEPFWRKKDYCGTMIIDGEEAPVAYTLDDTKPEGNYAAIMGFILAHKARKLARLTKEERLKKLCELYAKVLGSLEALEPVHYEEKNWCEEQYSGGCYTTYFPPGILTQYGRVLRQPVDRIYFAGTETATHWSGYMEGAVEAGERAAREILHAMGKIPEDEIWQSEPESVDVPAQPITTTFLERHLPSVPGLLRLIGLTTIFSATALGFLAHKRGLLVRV
# Description: Though its MAO-B inhibitory activity is not as potent as that of other compounds such as safinamide, its ability to mildly modulate neurotransmitter levels, particularly dopamine and serotonin, may be beneficial in improving synaptic communication in CDD. In addition to its interaction with the monoamine pathways, liquiritin's anti-inflammatory properties may aid in reducing the neuroinflammation often observed in CDKL5-deficient patients. By targeting both neurotransmitter regulation and inflammatory processes, liquiritin offers a dual mechanism that may be effective in restoring synaptic balance.
# EB2 phosphorylation = EB2 phosphorylation in CDKL5 knockout (KO) mouse model; type: in vivo; details: knockout (KO) male and Het female mice; compared with vehicle (drinking water)
# Method: In this context, EB2 phosphorylation acts as a functional molecular readout for the disease-modifying potential of small molecules, such as monoamine oxidase inhibitors (MAO-Is). When studying the efficacy of potential therapies for CDD, the measurement of EB2 phosphorylation levels can provide insight into whether the treatment is capable of compensating for the dysfunctional CDKL5 protein.
# To evaluate the impact of MAO-Is on EB2 phosphorylation, an in vivo study was conducted using a well-established CDKL5 knockout (KO) mouse model, specifically the B6.129(FVB)-Cdk15tm1.1Joez/J strain from Jackson Laboratories. […] These mice provide a relevant model for testing how pharmacological agents such as MAO-Is can modulate neuronal activity and potentially restore normal function in the absence of CDKL5.
# The increase in EB2 phosphorylation in these models provides compelling evidence that MAO-Is offer a disease-modifying therapeutic approach for patients with CDKL5 deficiency disorder, by targeting key molecular pathways involved in synaptic transmission and brain development.
# [4] = tested on: seizures in animal models; details: cited from earlier work
smiles,measurement,setting,value
COc1ccc2c(c1)[nH]c1c(C)nccc12 [harmine],GABA receptor activity,GABA receptor,increases GABA receptor activity
same,burst firing patterns,[1],normalized the burst firing patterns
same,network excitability,[1],reduced network excitability
same,neuronal synchrony,[1],improved neuronal synchrony
same,DYRK1A activity,DYRK1A,modulation of DYRK1A activity
same,microglial activity (overactivation),microglial cells,reducing their overactivation
same,production and release of proinflammatory cytokines and chemokines,[2],inhibits the production and release of proinflammatory cytokines and chemokines
same,efficacy of the dosing regimen,"CDKL5 knockout mice; 30 mg/kg intraperitoneally, 5 days on, 2 days off, another 5-day cycle",has shown efficacy
same,neurological outcomes,CDKL5 knockout mice; CDKL5 knockout mice,improved neurological outcomes
same,synaptic transmission and neuronal connectivity,CDKL5 knockout mice; CDKL5 knockout mice,significant improvements in synaptic transmission and neuronal connectivity
O=C1C[C@@H](c2ccc(O[C@@H]3O[C@H](CO)[C@@H](O)[C@H](O)[C@H]3O)cc2)Oc2cc(O)ccc21 [liquiritin],antioxidant activity,[3],demonstrated antioxidant activity
same,MAO-B inhibitory activity,MAO-B,weak MAO-B inhibitor
same,synaptic function,CDKL5 knockout mice; animal models including CDKL5 knockout mice,moderate improvements in synaptic function
same,EB2 phosphorylation levels,EB2 phosphorylation,effective in increasing EB2 phosphorylation levels
C[C@H](NCc1ccc(OCc2cccc(F)c2)cc1)C(N)=O [safinamide],anticonvulsant properties,[4],suppress seizures and provide neuroprotective effects
